The values that follow come from ChEMBL document CHEMBL1201862, “PubChem BioAssay data set” (2004).

Among the test systems are NCI-H226; HCT-15; OVCAR-3; MOLT-4; NCI-H460; OVCAR-5; SF-295; K562; HOP-92; NCI-H23; SK-MEL-2; HL-60; HT-29; MDA-MB-231; OVCAR-4; RXF 393; TK-10; COLO 205; A498; MDA-N.
Test in all cases: growth of human tumour cells (NCI), 48 h

Molecules are shown by their SMILES.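 Method: 48-hour compound exposure of cells in 96-well plates, five concentrations, linear interpolation of endpoints. At the GI50, growth is halved.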 Activity calls are given as the source filed them. Cut-off read from the data, not from the text of the source: active = GI50 up to about 1.1 µM and inactive = higher. *1 amine or outer side, *2 acyl side, *3 side chain or, on linkers, in order; H or OH if unused. Where a SMILES comes first, the peptide text is derived from it. Bridges are numbered along the chain shown (N, C = ends). [ ]: non-standard residue; d: D form. ξ: configuration not given here. X10 = CCC(C)C(N[*:1])C(O)CC(=O)O[C@H](C(=O)C(C)C(=O)[*:2])C(C)C; NMeY = CN[C@@H](Cc1ccc(O)cc1)C(=O)O; ξNMeL = CNC(CC(C)C)C(=O)O; ξT = CC(O)C(N)C(=O)O

Regarding `CCC(C)C1NC(=O)C(NC(=O)C(CC(C)C)N(C)C(=O)[C@@H]2CCCN2)C(C)OC(=O)[C@H](Cc2ccc(OC)cc2)N(C)C(=O)[C@@H]2CCCN2C(=O)[C@H](CC(C)C)NC(=O)C(C)C(=O)[C@H](C(C)C)OC(=O)CC1O` (stereo not given in full) (H-P[ξNMeL][ξT][X10]LP[NMeY](Me); ester 3-C), the GI50 in the test with NCI-H226 was < 0.01 µM (active); in the test with HCT-15, 0.016 µM; in the test on OVCAR-3, 0.00136 µM (active); with MOLT-4, 0.000244 µM (active); with NCI-H460, 0.000249 µM (active); in the test on OVCAR-5, < 0.01 µM (active). The GI50 in the test with SF-295 was 0.00144 µM (active); in the test on K562 it was 0.000325 µM (active); with HOP-92, 0.00121 µM (active); in the test with NCI-H23, 0.000258 µM (active); in the test with SK-MEL-2 it was < 0.01 µM (active); in the test on HL-60, 0.00389 µM (active). In addition, the GI50 with HT-29 is 0.000195 µM (active); in the test on MDA-MB-231, 0.00042 µM (active); with OVCAR-4, 0.000139 µM (active); in the test on RXF 393 it was < 0.01 µM (active); in the test with TK-10, 0.00355 µM (active); in the test on COLO 205, 0.000153 µM (active). The values for the GI50 in the test with A498 and with MDA-N were 0.00411 µM (active) and 0.000346 µM (active), respectively.
Take `COc1ccc2c(cnc3c4cc(OC)c(OC)cc4ccc23)c1`: the GI50 in the test with NCI-H226 was > 100 µM (inactive); in the test with HCT-15, more than 100 µM; with OVCAR-3, > 100 µM (inactive); in the test with MOLT-4 it was > 100 µM (inactive); in the test with NCI-H460 it was > 100 µM (inactive); in the test on OVCAR-5 it was > 100 µM (inactive). Moreover, the GI50 in the test with SF-295, in the test with K562, in the test with HOP-92, in the test on NCI-H23, with SK-MEL-2 and in the test on HL-60 was > 100 µM (inactive) in each case. In addition, the GI50 in the test with HT-29, in the test on MDA-MB-231, in the test with OVCAR-4, in the test on RXF 393, with TK-10 and with COLO 205 was > 100 µM (inactive) each time. For the same compound, the GI50 in the test with A498 and with MDA-N was > 100 µM (inactive) each time.
In the case of `COc1cccc(C(=O)N[C@@H]2[C@H](O)[C@@H](CO)O[C@H]2n2cnc3c(N)ncnc32)c1`, the GI50 in the test on NCI-H226 was > 100 µM (inactive); in the test on HCT-15, more than 100 µM; with OVCAR-3, > 100 µM (inactive); in the test with MOLT-4, > 100 µM (inactive); in the test with NCI-H460, > 100 µM (inactive); in the test with OVCAR-5 it was > 100 µM (inactive). The GI50 with SF-295, in the test on K562, with HOP-92, in the test with NCI-H23, with SK-MEL-2 and in the test on HL-60 was > 100 µM (inactive) throughout. The GI50 with HT-29, in the test on MDA-MB-231, with OVCAR-4, with RXF 393, in the test on TK-10 and in the test with COLO 205 was > 100 µM (inactive) in each case. Also, the GI50 with A498 and in the test on MDA-N was > 100 µM (inactive) in each case.
Take `O=c1oc2c(Br)c(O)c(Br)cc2c2ccccc12`: the GI50 is 27.1 µM (inactive) with NCI-H226; 19.2 µM in the test on HCT-15; 16.5 µM (inactive) in the test on OVCAR-3; 27.4 µM (inactive) in the test with MOLT-4; 24 µM (inactive) in the test with NCI-H460; 35 µM (inactive) in the test with OVCAR-5. In addition, the GI50 with SF-295 is 34 µM (inactive); in the test with K562, 23.1 µM (inactive); in the test with HOP-92, 22.5 µM (inactive); in the test with NCI-H23 it was 15.6 µM (inactive); with SK-MEL-2, 28.2 µM (inactive); in the test on HL-60, 23 µM (inactive). In addition, the GI50 is 30 µM (inactive) in the test on HT-29; 16.9 µM (inactive) in the test on MDA-MB-231; 29.7 µM (inactive) in the test with OVCAR-4; 38.6 µM (inactive) in the test with RXF 393; 34.9 µM (inactive) with TK-10; 29.9 µM (inactive) in the test with COLO 205. Besides, the GI50 is 25.8 µM (inactive) in the test with A498 and 31.5 µM (inactive) in the test with MDA-N.
With `CCSSCS(C)(=O)=O`, the GI50 in the test on NCI-H226 was 29.8 µM (inactive); in the test on HCT-15, 8.02 µM; with OVCAR-3, 26.5 µM (inactive); in the test with MOLT-4 it was 0.975 µM (active); with NCI-H460, 33.5 µM (inactive); in the test with OVCAR-5, 53.1 µM (inactive). The GI50 is 59.3 µM (inactive) in the test on SF-295; 3.88 µM (inactive) in the test with K562; 16.9 µM (inactive) in the test with HOP-92; 32.9 µM (inactive) in the test on NCI-H23; 39.1 µM (inactive) in the test on SK-MEL-2; 11.9 µM (inactive) in the test on HL-60. The GI50 with HT-29 was 30.4 µM (inactive); in the test on MDA-MB-231, 89.1 µM (inactive); in the test with OVCAR-4, 17.8 µM (inactive); in the test on RXF 393, 22.1 µM (inactive); in the test with TK-10, 36.3 µM (inactive); in the test on COLO 205, 6.4 µM (inactive). Besides, the GI50 was 32.3 µM (inactive) in the test on A498 and 10.5 µM (inactive) with MDA-N.
As for `C=C(CN(C)C)C(=O)c1cc(C)ccc1C`, the GI50 with NCI-H226 is 13.2 µM (inactive); in the test with HCT-15, 4.13 µM; in the test on OVCAR-3, 5.33 µM (inactive); with MOLT-4 it was 0.371 µM (active); with NCI-H460, 19.9 µM (inactive); in the test with OVCAR-5, 14.8 µM (inactive). Also, the GI50 in the test on SF-295 was 16.7 µM (inactive); with K562 it was 0.791 µM (active); in the test with HOP-92 it was 2.81 µM (inactive); with NCI-H23 it was 11.4 µM (inactive); in the test with SK-MEL-2, 16.9 µM (inactive); with HL-60, 0.232 µM (active). For the same compound, the GI50 was 11 µM (inactive) in the test with HT-29; 8.83 µM (inactive) in the test with MDA-MB-231; 9.75 µM (inactive) in the test on OVCAR-4; 2.61 µM (inactive) in the test with RXF 393; 8.95 µM (inactive) with TK-10; 1.58 µM (inactive) in the test on COLO 205. Further, the GI50 in the test with A498 was 23.6 µM (inactive); with MDA-N it was 6.84 µM (inactive).
Turning to `O=C1C=CC(=O)N1n1c(Cc2ccccc2)n[nH]c1=O`, the GI50 with NCI-H226 is > 100 µM (inactive); with HCT-15, more than 100 µM; with OVCAR-3, > 100 µM (inactive); with MOLT-4, > 100 µM (inactive); in the test on NCI-H460, > 100 µM (inactive); with OVCAR-5 it was > 100 µM (inactive). Besides, the GI50 in the test with SF-295, in the test with K562, in the test with HOP-92, with NCI-H23, in the test on SK-MEL-2 and in the test on HL-60 was > 100 µM (inactive) in each case. Further, the GI50 in the test with HT-29, in the test with MDA-MB-231, with OVCAR-4, in the test on RXF 393, in the test on TK-10 and with COLO 205 was > 100 µM (inactive) each time. For the same compound, the GI50 in the test on A498 and with MDA-N was > 100 µM (inactive) each time.
Regarding `O=C1/C(=C/c2ccc(O)cc2)CC/C1=C\c1ccc(O)cc1`, the GI50 in the test with NCI-H226 is > 100 µM (inactive); in the test on HCT-15, more than 100 µM; in the test with OVCAR-3 it was > 100 µM (inactive); in the test with MOLT-4, 7.14 µM (inactive); in the test on NCI-H460, 44.7 µM (inactive); in the test on OVCAR-5 it was > 100 µM (inactive). Besides, the GI50 in the test with SF-295 was > 96.4 µM (inactive); in the test with K562, > 100 µM (inactive); in the test on HOP-92, > 68.9 µM (inactive); with NCI-H23, > 100 µM (inactive); in the test on SK-MEL-2, > 100 µM (inactive); with HL-60 it was 0.458 µM (active). Further, the GI50 was > 100 µM (inactive) in the test on HT-29; > 100 µM (inactive) in the test with MDA-MB-231; > 64.3 µM (inactive) with OVCAR-4; > 100 µM (inactive) with RXF 393; > 100 µM (inactive) in the test with TK-10; > 100 µM (inactive) in the test on COLO 205. For the same compound, the GI50 is > 33 µM (inactive) in the test with A498 and > 100 µM (inactive) in the test with MDA-N.
Take `O=C(O)CCC(NC(=O)c1ccc(Nc2cnc3ccc(C(F)(F)F)cc3n2)cc1)C(=O)O` (stereo not given): the GI50 is > 100 µM (inactive) in the test on NCI-H226; more than 100 µM in the test with HCT-15; > 100 µM (inactive) in the test on OVCAR-3; > 100 µM (inactive) with MOLT-4; > 100 µM (inactive) with NCI-H460; > 100 µM (inactive) in the test on OVCAR-5. Moreover, the GI50 in the test with SF-295, in the test with K562, with HOP-92, with NCI-H23, with SK-MEL-2 and in the test with HL-60 was > 100 µM (inactive) each time. In addition, the GI50 with HT-29, in the test on MDA-MB-231, with OVCAR-4, in the test with RXF 393, in the test on TK-10 and in the test with COLO 205 was > 100 µM (inactive) throughout. Moreover, the GI50 in the test on A498 and in the test on MDA-N was > 100 µM (inactive) in each case.
For `COc1cc(Oc2nc3c(N)cc(C(F)(F)F)cc3nc2-c2ccccc2)cc(OC)c1OC`, the GI50 was 12.8 µM (inactive) with NCI-H226; 3.53 µM in the test with HCT-15; 1.3 µM (inactive) in the test with OVCAR-3; 3.44 µM (inactive) in the test on MOLT-4; 4.14 µM (inactive) in the test on NCI-H460; 31.3 µM (inactive) with OVCAR-5. In addition, the GI50 with SF-295 was 1.95 µM (inactive); in the test on K562 it was 1.23 µM (inactive); in the test on HOP-92, 14.7 µM (inactive); in the test with NCI-H23, 2.82 µM (inactive); with SK-MEL-2, 3.24 µM (inactive); with HL-60, 1.16 µM (inactive). Further, the GI50 is 1.49 µM (inactive) in the test on HT-29; 10.2 µM (inactive) in the test with MDA-MB-231; 19.2 µM (inactive) in the test with OVCAR-4; 5.71 µM (inactive) in the test on RXF 393; 26.1 µM (inactive) with TK-10; 3.62 µM (inactive) in the test with COLO 205. The GI50 with A498 was 7.89 µM (inactive); in the test on MDA-N, 0.412 µM (active).
